Test results from patent publication US5192766A, “N-acryloylpiperazine derivatives, their preparation and their use as PAF antagonists” (Sankyo Company, Limited, priority 1989, dated 1993).
pIC50: −log10 of the molar value.

Columns and labels:
PAF-induced hypotension = experiment: Inhibition of PAF-induced hypotension; format: in vivo, Wistar-Imamichi rats; conditions: Rattus norvegicus, iv, 1 min; anesthetized rats; l-C16:0 PAF 10 ng/kg i.v.; test compound i.v. cumulatively, 1 min before PAF; read-out: Inhibitory effect ID50
Procedure: Inhibition of PAF-induced hypotension
The test animals used were Wistar-Imamichi rats, each weighing from 350 to 450 g, anesthetized with Inactin (90 mg/kd, intraperitoneally).
Blood pressure was continuously measured throughout the experiment through a cannula inserted into the femoral artery. Each drug sample to be tested was intravenously injected through a cannula inserted into the femoral vein.
At first, l-C16:0 PAF was injected intravenously in amounts of 10 ng/kg at each injection at intervals of 5 minutes until the degree of the hypotensive response became constant. Then, each drug sample to be treated was intravenously injected. After one minute, the same dose of PAF was administered again. The drug sample was cumulatively administered. From its inhibition rate against the PAF-induced hypotensive effect, the 50% inhibitive dose (ID50) was determined, and is regarded as an index of PAF-antagonist activity. For administration, the PAF was dissolved in physiological saline solution containing 0.25% w/v of bovine serum albumin (BSA). The compounds under test were dissolved in dimethylformamide for use.
CV-3988 is disclosed in U.S. Pat. No. 4,408,052, and is structurally related to PAF itself.
In this Table, the compounds of the invention are identified by the number of the foregoing Example in which they were prepared.

[1] = test system: blood platelet (PAF-induced aggregation); experiment: Inhibitory effect in vitro against PAF-induced blood platelet aggregation; format: cell-based; conditions: Oryctolagus cuniculus, 5 min; rabbit platelet rich plasma; l-C16:0 PAF final 10^-8 ~3×10^-8 M; 5 min observation
Procedure: Inhibitory effect in vitro against PAF-induced blood platelet aggregation
Blood samples were drawn from a rabbit and one part by volume of each sample was immediately mixed with 1/9 part of a 3.8% w/v aqueous solution of sodium citrate. The samples were centrifuged at 150×G at room temperature for 15 minutes to obtain a platelet rich plasma (PRP) fraction from the upper layer. The remains were further centrifuged at 1,000×G for 15 minutes to obtain a platelet poor plasma (PPP) fraction from the upper layer. The PRP and PPP fractions were mixed appropriately, to obtain a sample in which the final count of blood platelets was adjusted to be 6×10^5 per ul. According to the method reported by Born et al. [G. V. R. Born et al.: J. Physiol. 62, 67-68 (1962)], blood platelet aggregation was determined by an increase in light transmission measured using an aggregometer. 3 ul of a solution of the test compound in dimethyl sulfoxide were added to 272 ul of PRP, and, after 1 minute, 25 ul of a physiological saline solution containing l-c16:0 PAF (at a final concentration of 10^-8 ~3×10^-8 M) were added. […] At the end of this value and the value of PAF-induced aggregation which was observed when dimethyl sulfoxide only was used without the addition of any test compound. IC50 values were calculated from the dose-response curve.

## COc1cc(C(=O)N2CCN(C(=O)C=C(c3cccs3)c3cccs3)CC2)cc(OC)c1OC [Example 4, 1-[3,3-Bis(2-thienyl)acryloyl]-4-(3,4,5-trimethoxybenzoyl)piperazine]
PAF-induced hypotension
  ED50: 0.074 mg/kg

## COc1ccc(/C(=C/C(=O)N2CCN(C(=O)c3cc(OC)c(OC)c(OC)c3)CC2)c2cccc(Cl)c2)cc1OC [Example 17, 1-[(Z)-3-(3-Chlorophenyl)-3-(3,4-dimethoxyphenyl)acryloyl]-4-(3,4,5-trimethoxybenzoyl)piperazine]
[1]
  pIC50: 7.20
PAF-induced hypotension
  ED50: 0.0083 mg/kg

## COc1ccc(C(=CC(=O)N2CCN(C(=O)c3cc(OC)c(OC)c(OC)c3)CC2)c2ccc(OC)c(OC)c2)cc1OC [Example 28, 1-[Bis(3,4-dimethoxyphenyl)acryloyl]-4-(3,4,5-trimethoxybenzoyl)piperazine]
[1]
  pIC50: 6.64
PAF-induced hypotension
  ED50: 0.039 mg/kg

## COc1ccc(/C(=C/C(=O)N2CCN(C(=O)c3cc(OC)c(OC)c(OC)c3)CC2)c2cccc(F)c2)cc1 [Example 74, 1-[(Z)-3-(4-Methoxyphenyl)-3-(3-fluorophenyl)acryloyl]-4-(3,4,5-trimethoxybenzoyl)piperazine]
[1]
  pIC50: 7.24
PAF-induced hypotension
  ED50: 0.0055 mg/kg

## COc1ccc(/C(=C/C(=O)N2CCN(C(=O)c3cc(OC)c(OC)c(OC)c3)CC2)c2cc(C)cc(C)c2)cc1 [Example 82, 1-[(Z)-3-(4-Methoxyphenyl)-3-(3,5-dimethylphenyl)acryloyl]-4-(3,4,5-trimethoxybenzoyl)piperazine]
[1]
  pIC50: 8.00
PAF-induced hypotension
  ED50: 0.013 mg/kg

## COc1cc(C(=O)N2CCN(C(=O)/C=C(\c3ccccc3)c3ccc4ccccc4c3)CC2)cc(OC)c1OC [Example 48, 1-[(E)-3-(2-Naphthyl)-3-phenylacryloyl]-4-(3,4,5-trimethoxybenzoyl)piperazine]
PAF-induced hypotension
  ED50: 0.012 mg/kg

## COc1ccc(/C(=C\C(=O)N2CCN(C(=O)c3cc(OC)c(OC)c(OC)c3)CC2)c2ccc(C)cc2)cc1OC [Example 36, 1-[(Z)-3-(3,4-Dimethoxyphenyl)-3-(4-methylphenyl)acryloyl]-4-(3,4,5-trimethoxybenzoyl)piperazine]
[1]
  pIC50: 6.66
PAF-induced hypotension
  ED50: 0.039 mg/kg

## COc1ccc(/C(=C\C(=O)N2CCN(C(=O)c3cc(OC)c(OC)c(OC)c3)CC2)c2cccc(Cl)c2)cc1OC [Example 18, 1-[(E)-3-(3-Chlorophenyl)-3-(3,4-dimethoxyphenyl)acryloyl]-4-(3,4,5-trimethoxybenzoyl)piperazine]
PAF-induced hypotension
  ED50: 0.026 mg/kg

## COc1ccc(/C(=C/C(=O)N2CCN(C(=O)c3cc(OC)c(OC)c(OC)c3)CC2)c2ccc(Cl)cc2Cl)cc1 [Example 78, 1-[(Z)-3-(4-Methoxyphenyl)-3-(2,4-dichlorophenyl)acryloyl]-4-(3,4,5-trimethoxybenzoyl)piperazine]
[1]
  pIC50: 7.54
PAF-induced hypotension
  ED50: 0.0073 mg/kg

## COc1ccc(/C(=C/C(=O)N2CCN(C(=O)c3cc(OC)c(OC)c(OC)c3)CC2)c2ccc(OC)c(OC)c2)cc1 [Example 30, 1-[(Z)-3-(3,4-Dimethoxyphenyl)-3-(4-methoxyphenyl)acryloyl]-4-(3,4,5-trimethoxybenzoyl)piperazine]
[1]
  pIC50: 6.82
PAF-induced hypotension
  ED50: 0.044 mg/kg

## COc1ccc(/C(=C/C(=O)N2CCN(C(=O)c3cc(OC)c(OC)c(OC)c3)CC2)c2c(Cl)cccc2Cl)cc1 [Example 79, 1-[(Z)-3-(4-Methoxyphenyl)-3-(2,6-dichlorophenyl)acryloyl]-4-(3,4,5-trimethoxybenzoyl)piperazine]
PAF-induced hypotension
  ED50: 0.0066 mg/kg

## CCCOc1ccc(/C(=C/C(=O)N2CCN(C(=O)c3cc(OC)c(OC)c(OC)c3)CC2)c2cccc(Cl)c2)cc1 [Example 71, 1-[(Z)-3-(4-Propoxyphenyl)-3-(3-chlorophenyl)acryloyl]-4-(3,4,5-trimethoxybenzoyl)piperazine]
[1]
  pIC50: 7.42
PAF-induced hypotension
  ED50: 0.0074 mg/kg

## COc1ccc(/C(=C/C(=O)N2CCN(C(=O)c3cc(OC)c(OC)c(OC)c3)CC2)c2cccc(C(F)(F)F)c2)cc1OC [Example 33, 1-[(E)-3-(3,4-Dimethoxyphenyl)-3-(3-trifluoromethylphenyl)acryloyl]-4-(3,4,5-trimethoxybenzoyl)piperazine]
[1]
  pIC50: 7.37
PAF-induced hypotension
  ED50: 0.0078 mg/kg

## COc1cc(C(=O)N2CCN(C(=O)C=C(c3ccc(F)cc3)c3ccc(F)cc3)CC2)cc(OC)c1OC [Example 25, 1[Bis(4-fluorophenyl)acryloyl]-4-(3,4,5-trimethoxybenzoyl)piperazine]
PAF-induced hypotension
  ED50: 0.052 mg/kg

## COc1ccc(/C(=C/C(=O)N2CCN(C(=O)c3cc(OC)c(OC)c(OC)c3)CC2)c2cccc(Br)c2)cc1 [Example 73, 1-[(Z)-3-(4-Methoxyphenyl)-3-(3-bromophenyl)acryloyl]-4-(3,4,5-trimethoxybenzoyl)piperazine]
[1]
  pIC50: 7.07
PAF-induced hypotension
  ED50: 0.0084 mg/kg

## COc1ccc(/C(=C/C(=O)N2CCN(C(=O)c3cc(OC)c(OC)c(OC)c3)CC2)c2ccc(C)cc2)cc1OC [Example 35, 1-[(E)-3-(3,4-Dimethoxyphenyl)-3-(4-methylphenyl)acryloyl]-4-(3,4,5-trimethoxybenzoyl)piperazine]
[1]
  pIC50: 6.96
PAF-induced hypotension
  ED50: 0.012 mg/kg

## COc1ccc(/C(=C\C(=O)N2CCN(C(=O)c3cc(OC)c(OC)c(OC)c3)CC2)c2cccc(C)c2)cc1OC [Example 40, 1-[(Z)-3-(3,4-Dimethoxyphenyl)-3-(3-methylphenyl)acryloyl]-4-(3,4,5-trimethoxybenzoyl)piperazine]
[1]
  pIC50: 6.96

## COc1ccc(/C(=C/C(=O)N2CCN(C(=O)c3cc(OC)c(OC)c(OC)c3)CC2)c2cccc(C)c2)cc1OC [Example 39, 1-[(E)-3-(3,4-Dimethoxyphenyl)-3-(3-methylphenyl)acryloyl]-4-(3,4,5-trimethoxybenzoyl)piperazine]
PAF-induced hypotension
  ED50: 0.008 mg/kg

## CCOc1ccc(/C(=C/C(=O)N2CCN(C(=O)c3cc(OC)c(OC)c(OC)c3)CC2)c2cccc(F)c2)cc1 [Example 88, 1-[(Z)-3-(4-Ethoxyphenyl)-3-(3-fluorophenyl)acryloyl]-4-(3,4,5-trimethoxybenzoyl)piperazine]
PAF-induced hypotension
  ED50: 0.092 mg/kg

## COc1ccc(/C(=C/C(=O)N2CCN(C(=O)c3cc(OC)c(OC)c(OC)c3)CC2)c2cc(Cl)ccc2Cl)cc1 [Example 80, 1-[(Z)-3-(4-Methoxyphenyl)-3-(2,5-dichlorophenyl)acryloyl]-4-(3,4,5-trimethoxybenzoyl)piperazine]
[1]
  pIC50: 7.55
PAF-induced hypotension
  ED50: 0.0065 mg/kg

## CCc1ccc(/C(=C/C(=O)N2CCN(C(=O)c3cc(OC)c(OC)c(OC)c3)CC2)c2cc(Cl)cc(Cl)c2)cc1 [Example 86, 1-[(Z)-3-(4-Ethylphenyl)-3-(3,5-dichlorophenyl)acryloyl]-4-(3,4,5-trimethoxybenzoyl)piperazine]
PAF-induced hypotension
  ED50: 0.015 mg/kg

## COc1ccc(/C(=C\C(=O)N2CCN(C(=O)c3cc(OC)c(OC)c(OC)c3)CC2)c2cccc(C(F)(F)F)c2)cc1OC [Example 34, 1-[(Z)-3-(3,4-Dimethoxyphenyl)-3-(3-trifluoromethylphenyl)acryloyl]-4-(3,4,5-trimethoxybenzoyl)piperazine]
PAF-induced hypotension
  ED50: 0.021 mg/kg

## COc1ccc(/C(=C\C(=O)N2CCN(C(=O)c3cc(OC)c(OC)c(OC)c3)CC2)c2ccc(Cl)cc2)cc1OC [Example 16, 1-[(Z)-3-(4-Chlorophenyl)-3-(3,4-dimethoxyphenyl)acryloyl]-4-(3,4,5-trimethoxybenzoyl)piperazine]
PAF-induced hypotension
  ED50: 0.074 mg/kg

## CCCOc1ccc(/C(=C/C(=O)N2CCN(C(=O)c3cc(OC)c(OC)c(OC)c3)CC2)c2ccccc2)cc1 [Example 53, 1-[(E)-3-Phenyl-3-(4-propoxyphenyl)acryloyl]-4-(3,4,5-trimethoxybenzoyl)piperazine]
[1]
  pIC50: 7.28
PAF-induced hypotension
  ED50: 0.0074 mg/kg

## COc1cc(C(=O)N2CCN(C(=O)C=C(c3ccc(Cl)cc3)c3ccc(Cl)cc3)CC2)cc(OC)c1OC [Example 3, 1-[3,3-Bis(4-chlorophenyl)acryloyl]-4-(3,4,5-trimethoxybenzoyl)piperazine]
[1]
  pIC50: 6.66
PAF-induced hypotension
  ED50: 0.048 mg/kg

## COc1cc(C(=O)N2CCN(C(=O)/C=C(/c3cccc(C)c3)c3ccc(Cl)c(Cl)c3)CC2)cc(OC)c1OC [Example 37, 1-[(Z)-3-(3,4-Dichlorophenyl)-3-(3-methylphenyl)acryloyl]-4-(3,4,5-trimethoxybenzoyl)piperazine]
[1]
  pIC50: 6.96

## COc1ccc(/C(=C\C(=O)N2CCN(C(=O)c3cc(OC)c(OC)c(OC)c3)CC2)c2ccccc2)cc1OC [Example 8, 1-[(Z)-3-(3,4-Dimethoxyphenyl)cinnamoyl]-4-(3,4,5-trimethoxybenzoyl)piperazine]
PAF-induced hypotension
  ED50: 0.058 mg/kg
